From US8436036B2, “Diaryl ethers” (Janssen R&D Ireland, priority 2009, dated 2013) come the findings set out here.

For one series, the system named is HCV replicon. Nature of the series: HCV replicon assay (Huh-Luc cells, luciferase read-out). Type of series: cell-based, HCV type Ib. Particulars: Hepatitis C virus, 72 h, three days incubation, luciferase activity. An excerpt: The compounds of formula (I) were examined for inhibitory activity in the HCV replicon. This cellular assay is based on a bicistronic expression construct, as described by Lohmann et al. (1999) Science vol. 285 pp. 110-113 with modifications described by Krieger et al. (2001) Journal of Virology 75: 4614-4624, in a multi-target screening strategy.
In essence, the method was as follows:
The assay utilized the stably transfected cell line Huh-7 luc/neo (hereafter referred to as Huh-Luc). This cell line harbors an RNA encoding a bicistronic expression construct comprising the wild type NS3-NS5B regions of HCV type Ib translated from an Internal Ribosome Entry Site (IRES) from encephalomyocarditis virus (EMCV), preceded by a reporter portion (FfL-luciferase), and a selectable marker portion (neo^R, neomycine phosphotransferase). The construct is flanked by 5′ and 3′ NTRs (non-translated regions) from HCV type Ib. Continued culture of the replicon cells in the presence of G418 (neo^R) is dependent on the replication of the HCV RNA. The stably transfected replicon cells that express HCV RNA, which replicates autonomously and to high levels, encoding inter alia luciferase, were used for screening the antiviral compounds.
The replicon cells were plated in 384 well plates in the presence of the test and control compounds which were added in various concentrations. Following an incubation of three days, HCV replication was measured by assaying luciferase activity (using standard luciferase assay substrates and reagents and a Perkin Elmer ViewLux™ ultraHTS microplate imager). Replicon cells in the control cultures have high luciferase expression in the absence of any inhibitor. The inhibitory activity of the compound on luciferase activity was monitored on the Huh-Luc cells, enabling a dose-response curve for each test compound. EC50 values were then calculated, which represent the amount of compound required to decrease the level of detected luciferase activity by 50%, or more specifically, to reduce the ability of the genetically linked HCV replicon RNA to replicate.
For orientation: A replicon is a self-replicating genome or part of one, used to study replication in cells.

The nature of another series: Cytotoxicity (Huh-7). Type of series: cell-based. The following applies: human, Huh-7 cells. An excerpt: The in vitro antiviral activity against HCV of the compounds of formula I can be tested in a cellular HCV replicon system based on Lohmann et al. (1999) Science 285:110-113, with the further modifications described by Krieger et al. (2001) Journal of Virology 75: 4614-4624 (incorporated herein by reference), which is further exemplified in the examples section. This model, while not a complete infection model for HCV, is widely accepted as the most robust and efficient model of autonomous HCV RNA replication currently available. It will be appreciated that it is important to distinguish between compounds that specifically interfere with HCV functions from those that exert cytotoxic or cytostatic effects in the HCV replicon model, and as a consequence cause a decrease in HCV RNA or linked reporter enzyme concentration. Assays are known in the field for the evaluation of cellular cytotoxicity based for example on the activity of mitochondrial enzymes using fluorogenic redox dyes such as resazurin. Furthermore, cellular counter screens exist for the evaluation of non-selective inhibition of linked reporter gene activity, such as firefly luciferase. Appropriate cell types can be equipped by stable transfection with a luciferase reporter gene whose expression is dependent on a constitutively active gene promoter, and such cells can be used as a counter-screen to eliminate non-selective inhibitors.

The term EC50 denotes the concentration needed to bring the measured effect to its halfway point. As a reminder, the CC50 is the concentration giving 50% cytotoxicity. A lower CC50 goes with greater toxicity to the cells. In the case of `O=C([C@H]1CCCO1)N1CCC[C@H]1c1nc(-c2cccc(Oc3ccc(-c4cnc([C@@H]5CCCN5C(=O)[C@H]5CCCO5)[nH]4)cc3)c2)c[nH]1` [Example 22], in the series with HCV replicon, the EC50 came to 1090 nM. In the series “Cytotoxicity (Huh-7)”, this compound returned a CC50 of more than 31.5 µM.
Turning to `COC(=O)N[C@H](C(=O)N1CCC[C@H]1c1ncc(-c2ccc(Oc3cccc(-c4cnc([C@@H]5CCCN5C(=O)[C@@H](NC(=O)OC)C(C)(C)C)[nH]4)c3)cc2)[nH]1)C(C)(C)C` [Example 40], in the series with HCV replicon, the EC50 is 0.165 nM. The half-maximal cytotoxic concentration (CC50) in “Cytotoxicity (Huh-7)” is 12.6 µM.
Consider `O=C(C(O)c1ccccc1)N1CCC[C@H]1c1nc(-c2cccc(Oc3ccc(-c4cnc([C@@H]5CCCN5C(=O)C(O)c5ccccc5)[nH]4)cc3)c2)c[nH]1` (stereo partly drawn) [Example 10, 2-hydroxy-1-((2S)-2-(5-(4-(3-(2-((2S)-1-(2-hydroxy-2-phenylacetyl)-pyrrolidin-2-yl)-1H-imidazol-4-yl)phenoxy)phenyl)-1H-imidazol-2-yl)pyrrolidin-1-yl)-2-phenylethanone], for which the EC50 in the series on HCV replicon was less than 0.5 nM. The compound further showed a CC50 in “Cytotoxicity (Huh-7)” of 4.86 µM.
The corresponding values for `O=C(CC1CCCCC1)N1CCC[C@H]1c1nc(-c2cccc(Oc3ccc(-c4cnc([C@@H]5CCCN5C(=O)CC5CCCCC5)[nH]4)cc3)c2)c[nH]1` [Example 28] are 5470 nM and more than 31.5 µM.
Consider `O=C(C(=O)N1CCC[C@H]1c1nc(-c2cccc(Oc3ccc(-c4cnc([C@@H]5CCCN5C(=O)C(=O)c5ccccc5)[nH]4)cc3)c2)c[nH]1)c1ccccc1` [Example 20], for which, in the series on HCV replicon, the EC50 stood at 58.2 nM. The compound further yielded a CC50 in the series “Cytotoxicity (Huh-7)” of more than 31.5 µM.
